The values that follow come from patent publication US12527880B2, “Cyanine-based telodendrimers and uses for treating cancer” (priority 2018, dated 2026).

Bounds are passed on as bounds.

The nature of data set [1]: In vivo blood elimination kinetics. More on the design: species or system female Sprague-Dawley rats.
From the text: In vivo blood elimination kinetics. The jugular vein of female Sprague-Dawley rats was implanted with catheter for blood collection (Harland, Indianapolis, IN, USA). […] All of the blood samples were collected from the catheter at different time point. Micro-plate reader (SpectraMax M2) was used to measure the ICG concentration at absorbance at 808 nm.
Setting [2] is: female, Sprague-Dawley, rat, blood, iv, 5 mg kg^−1, rats.

Method for OSC-3 oral cancer cells: The in vitro cell cytotoxicity, cellular uptake study and combination therapy of samples were assessed on human OSC-3 oral cancer cell line, which was purchased from American type culture collection (ATCC). The cells were cultured with DMEM supplemented with 10% FBS and 1% Penicillin at 37° C. in humidified atmosphere with 5% CO2 for 24 h. Then the samples were added to each well and the cells were incubated at 37° C. for an additional 24 h. After the incubation, the relative cell viabilities were measured by the MTS assay. […] For in vitro chemo-/photothermal combination therapy, OSC-3 cells were seeded into 96-well plates (n=3) and incubated with different samples for 4 h, followed by exposure to an 808 nm NIR laser (0.8 W cm^2, 2 min). Thereafter, the cells were incubated for another 24 h at 37° C. and MTS reagent was added into each well. The relative cell viabilities were then measured by MTS assay. Percentage of cell viability represents drug effect, and 100% means all cells survived. Cell viability was calculated using the following equation: Cell viability (%)=(OD490 nm of treatment/OD490 nm of blank control)×100%. For in vitro cells apoptosis experiment, OSC-3 cells were co-cultured with different samples (DOX concentration: 25 μg mL^−1 and 808 nm NIR laser (0.8 W cm^2, 2 min), if applied) for 8 h. Cells were washed two times and replaced with fresh medium.

In the data set with OSC-3 oral cancer cells, `COc1cccc2c1C(=O)c1c(O)c3c(c(O)c1C2=O)C[C@@](O)(C(=O)CO)C[C@@H]3O[C@H]1C[C@H](N)[C@H](O)[C@H](C)O1` [free DOX, doxorubicin] displayed a cell viability of 61%.

For the molecule `CC1(C)C(/C=C/C=C/C=C/C=C2\N(CCCCS(=O)(=O)O)c3ccc4ccccc4c3C2(C)C)=[N+](CCCCS(=O)(=O)[O-])c2ccc3ccccc3c21` [free ICG, indocyanine green], the “time to clearance from circulation” value in data set [1] (after intravenous administration) is recorded as at most 30 min. In data set [1] (setting [2]), this molecule showed an exposure (AUC) of 12.1 µg·h/mL and a half-life of 5.22 min.

What is called cell viability is a per cent measure of how many cells are alive, often set against a control. A higher cell viability goes with better survival. A word on the AUC: it is concentration integrated over time. Low readings indicate low exposure, high ones high exposure. One may read the half-life as how long it takes for the measured level to halve. Read a high half-life as slow loss.
